{"source": "patent US20220315895A1", "about": "“METHODS OF MAKING OLIGOPOTENT AND UNIPOTENT PRECURSORS” (Transfusion Health, LLC, priority 2019, published 2022)", "key": {"[1]": {"test_system": "expanded cord blood CD34+ cells, erythroid lineage (CD71, CD235a)", "assay": "Erythroid Differentiation Culture after Expansion Culture (Example 38)", "format": "cell-based, human", "conditions": "for cells with markers of erythrocyte differentiation (CD71 and/or CD235a), of total cells: seven days Erythroid Differentiation Culture; for cells with markers of erythrocyte differentiation (CD71 and/or CD235a), of total cells / cells positive for CD235a (maturing erythrocyte differentiation): average", "experimental": "At days 21 and 63, CD34+ enriched cells were placed into Differentiation Cultures, described below.\nDifferentiation cultures were initiated using Erythroid, Myeloid (granulocyte and monocyte), and Megakaryocyte HemaTox kits from STEMCELL technologies following the manufacturer's instructions. In brief, lineage media was prepared by adding cytokine cocktails for erythrocyte (SCF, IL-3, and EPO), myeloid (i.e. mixed granulocyte/monocyte, SCF, TPO, G-CSF, and GM-CSF) or megakaryocyte (SCF, IL-6, IL-9 and TPO) lineage differentiation to their respective kits' media, then adding approximately 30-100 CD34+ cells for erythroid or myeloid cultures, or 300-1000 CD34+ cells for megakaryoid cultures. Exact cell numbers plated were quantified for later analysis. All incubations for Differentiation Culture took place at 3% oxygen (controlled by nitrogen) and 5% CO2.\nFollowing seven days of erythroid or myeloid cultures, or ten days for megakaryoid cultures, differentiated cell output was quantified using flow cytometry. Erythroid output was quantified using anti-CD71 and anti-CD235a antibodies, and megakaryocyte lineage output was quantified using anti-CD41 and anti-CD42b antibodies. Granulocyte and monocyte lineage outputs were assessed in tandem, using CD14 and CD15 antibodies, with granulocyte lineage cells being CD15+/CD14−, and monocyte lineage cells being CD14+/CD15−.\nA number of quantities were calculated to assess the effect of expansion of CD34+ cells in the +Formula I Condition on the output of lineage differentiated cells. “Per-Assayed-CD34+ Cell Output” describes the output of differentiated cells per CD34+ cell placed into Differentiation Culture, and is calculated by dividing the total number of lineage-positive cells by the input CD34+ cell number quantified at Differentiation Culture initiation at day 1, 21, or 63. “Per-expanded-day-1-CD34+ cell output” describes the number of differentiated cells of a given lineage that may be produced from a single CD34+ cell following both Expansion Cell Culture (if expanded) followed by Differentiation Culture, and is calculated by multiplying Per-Assayed-CD34+ Cell Output by the fold expansion of CD34+ cells from day 1 to the day of analysis, either day 21 or day 63. “Per-banked-CBU lineage output” describes the number of differentiated cells of a given lineage that may be produced using the CD34+ cells from a full cord blood unit, and is calculated by multiplying the per-expanded-day-1-CD34+ cell output by 2×10^6, a conservative estimate the number of CD34+ cells in an average cord held in a public cord blood bank (Sun, J., Allison, J., McLaughlin, C., Sledge, L., Waters-Pick, B., Wease, S., and Kurtzberg, J. (2010). Differences in quality between privately and publicly banked umbilical cord blood units: a pilot study of autologous cord blood infusion in children with acquired neurologic disorders. Transfusion (Paris) 50, 1980-1987). This per-banked-CBU lineage output provides the ability to gauge the number of therapeutic units that may be derived from a single cord blood unit available as input to the manufacturing of a therapeutic product, and enables comparison to current state-of-the-art methods. Where relevant therapeutic dose benchmarks were available, this per-banked-CBU lineage output was used to calculate the number of therapeutic units that may be prepared from a single banked CBU unit. We calculated therapeutic units for granulocyte precursors, using 50 billion (5×10^10) cells per dose as a conservative benchmark (Valentini, C. G., Farina, F., Pagano, L., and Teofili, L. (2017). Granulocyte Transfusions: A Critical Reappraisal. Biol. Blood Marrow Transplant. 23, 2034-2041). […]"}, "CD15+/CD14− cells": {"test_system": "CD15+/CD14− cells", "assay": "Respiratory burst assay, dihydrorhodamine-123 / PMA (Example 39)", "format": "cell-based, human", "conditions": "Formula I-expanded Differentiation Cultures, day 13; 200 nM PMA 30 minutes", "experimental": "On day 13 of Granulocyte Differentiation Culture, a portion of the culture was removed for in vitro analysis of granulocyte function through two separate assays for phagocytosis and respiratory burst.\nIn the respiratory burst assay, the ability of cells to generate reactive oxygen species (used to kill ingested bacteria) was measured. Cells were first pulsed for 15 minutes with dihydrorhodamine-123, a reagent that fluoresces only after it has been oxidized to rhodamine 123. Following this incubation, cells were treated for 30 minutes with 200 nM phorbol 12-myristate 13-acetate (PMA) to non-specifically activate the respiratory burst. Control samples without PMA were also prepared. Following this incubation, cells were stained with antibodies to CD15 and CD14, washed thoroughly, then analyzed via flow cytometry on an Attune flow cytometer. CD15+/CD14− cells were quantified for rhodamine 123 fluorescence, indicating activation of oxidative burst."}}}
{"smiles": "CC(C)(C)C(=O)Nc1ccc2c(c1)C(O)c1ccccc1-2", "note": "(centres unmarked) [Compound 1.010]", "values": [{"measurement": "fold increase of per-expanded-day-1-CD34+ cell output, erythroid lineage, over uncultured cells", "setting": "[1]; +Formula I expansion (Compound 1.010 8 μM) to day 21, then 7 days differentiation", "result": 301, "unit": "fold"}, {"measurement": "fold increase of per-expanded-day-1-CD34+ cell output, erythroid lineage, over uncultured cells", "setting": "[1]; +Formula I expansion to day 63, then 7 days differentiation", "result": "91,000 fold"}, {"measurement": "CD71−/CD235a+ cells (mature erythrocytes)", "setting": "[1]; expanded 21 or 63 days in Formula I condition, day seven of Erythroid Differentiation Culture", "result": "No CD71−/CD235a+ cells were detected"}, {"measurement": "cells with markers of erythrocyte differentiation (CD71 and/or CD235a), of total cells", "setting": "[1]; expanded 21 days in Formula I Condition", "result": 50, "unit": "%"}, {"measurement": "cells positive for CD235a (maturing erythrocyte differentiation)", "setting": "[1]; expanded 21 days in Formula I condition, day seven of Erythroid Differentiation Culture", "result": 46, "unit": "%"}, {"measurement": "cells with markers of erythrocyte differentiation (CD71 and/or CD235a), of total cells", "setting": "[1]; expanded 63 days in Formula I Condition", "result": 75, "unit": "%"}, {"measurement": "cells positive for CD235a (maturing erythrocyte differentiation)", "setting": "[1]; expanded 63 days in Formula I condition, day seven of Erythroid Differentiation Culture", "result": 86, "unit": "%"}, {"measurement": "cells that activated respiratory burst when stimulated with PMA", "setting": "CD15+/CD14− cells", "result": 56, "unit": "%"}]}
